Tested on: Rattus norvegicus
Test: Toxicity in po dosed Rattus norvegicus (rat)
Details: in vivo

SMILES	pLD50
O=C(O)c1c(Cl)ccc(Cl)c1O	7.35
COC(=O)c1cc([N+](=O)[O-])ccc1Cl	8.59
Cc1ccc(OC(=O)c2ccccc2O)cc1	7.17
COC(=O)c1cccc(C)c1O	8.25
CC(C)COC(=O)c1ccccc1O	7.35
CC(C)CCOC(=O)c1ccccc1O	8.1
O=C(O)c1c(Cl)ccc(Cl)c1Cl [2,3,6-TRICHLOROBENZOIC ACID]	6.48
COc1cccc(OC)c1C(=O)O [2,6-DIMETHOXYBENZOIC ACID]	6.21
COC(=O)c1ccccc1OC(N)=O [2-(AMINOCARBONYL)OXYBENZOIC ACID METHYL ESTER]	7.82
O=C(O)c1ccccc1C(=O)c1ccccc1 [2-BENZOYLBENZOIC ACID]	8.43
O=C(O)Cc1ccccc1C(=O)O [2-CARBOXYBENZENEACETIC ACID]	6.21
CNc1ccccc1C(=O)OC [2-METHYLAMINOBENZOIC ACID METHYL ESTER]	8.13
Nc1c(Cl)cc(Cl)cc1C(=O)O [3,5-DICHLOROANTHRANILIC ACID]	8.32
O=C(O)c1cc([N+](=O)[O-])cc([N+](=O)[O-])c1O [3,5-DINITROSALICYLIC ACID]	6.76
COc1c(Cl)ccc(Cl)c1C(=O)O [3,6 DICHLOROMETHOXYBENZOIC ACID]	6.95
O=C(O)c1ccc(Cl)c([N+](=O)[O-])c1 [4-CHLORO-3-NITROBENZOIC ACID]	8.06
CCOC(=O)c1ccc(OC)cc1 [4-METHOXYBENZOIC ACID ETHYL ESTER]	7.62
CCOC(=O)c1ccc([N+](=O)[O-])cc1 [4-NITROBENZOIC ACID ETHYL ESTER]	7.89
O=C(O)c1ccc([N+](=O)[O-])cc1 [4-NITROBENZOIC ACID]	7.58
O=C(Cl)c1ccc([N+](=O)[O-])cc1 [4-NITROBENZOYL CHLORIDE]	8.63
O=C(O)c1cc(Cl)ccc1O [5-CHLOROSALICYLIC ACID]	5.52
Nc1ccc(C(=O)O)cc1 [AMINOBENZOIC ACID]	8.7
Nc1ccccc1C(=O)O [ANTHRANILIC ACID]	8.6
CC(=O)Oc1ccccc1C(=O)O [ASPIRIN]	5.3
CCOC(=O)c1ccc(N)cc1 [BENZOCAINE]	8.02
CC(C)CCOC(=O)c1ccccc1 [BENZOIC ACID 1-(3-METHYL)BUTYL ESTER]	8.75
CC(C)OC(=O)c1ccccc1 [BENZOIC ACID 1-METHYLETHYL ESTER]	8.22

SMILES	pLD50
O=C(OCC1CO1)c1ccccc1 (centres undefined) [BENZOIC ACID 2,3-EPOXYPROPYL ESTER]	7.25
CC(C)COC(=O)c1ccccc1 [BENZOIC ACID 2-METHYLPROPYL ESTER]	8.63
O=C(Oc1cccc(O)c1)c1ccccc1 [BENZOIC ACID 3-HYDROXYPHENYL ESTER]	6.68
CC(C)=CCOC(=O)c1ccccc1 [BENZOIC ACID 3-METHYL-2-BUTENYL ESTER]	8.46
Cc1ccc(OC(=O)c2ccccc2)cc1 [BENZOIC ACID 4-METHYLPHENYL ESTER]	7.88
CCCCCCOC(=O)c1ccccc1 [BENZOIC ACID HEXYL ESTER]	9.42
C=COC(=O)c1ccccc1 [BENZOIC ACID VINYL ESTER]	8.09
O=C(O)c1ccccc1 [BENZOIC ACID]	7.44
O=C(Cl)c1ccccc1 [BENZOYL CHLORIDE]	7.55
O=C(OCc1ccccc1)c1ccccc1O [BENZYL SALICYLATE]	7.71
CCCCOC(=O)c1ccccc1N [BUTYL 2-AMINOBENZOATE]	8.52
Nc1cc(Cl)cc(C(=O)O)c1Cl [CHLORAMBEN]	8.16
CCOC(=O)c1ccccc1 [ETHYL BENZOATE]	7.65
CCOC(=O)c1ccccc1O [ETHYL SALICYLATE]	7.191
O=C(O)c1ccccc1OP(=O)(O)O [FOSFOSAL]	7.01
Cc1cccc(C(=O)O)c1O [HYDROXYTOLUIC ACID]	6.1
Nc1ccc(O)c(C(=O)O)c1 [MESALAMINE]	7.94
COC(=O)c1ccccc1OC [METHYL 2-METHOXYBENZOATE]	8.241
COC(=O)c1ccc(OC)cc1 [METHYL 4-METHOXYBENZOATE]	8.52
COC(=O)c1ccccc1O [METHYL SALICYLATE]	6.79
O=C(O)c1ccccc1/N=C/c1ccccc1 [N-BENZYLIDENEANTHRANILIC ACID]	6.21
O=C(O)c1ccc(O)cc1 [PARABEN]	9.21
O=C(Oc1ccccc1)c1ccccc1O [PHENYL SALICYLATE]	8.01
CCCOC(=O)c1cc(O)c(O)c(O)c1 [PROPYL GALLATE]	7.65
NC(=O)c1ccccc1O [SALICYLAMIDE]	6.89
O=C(O)c1ccccc1O [SALICYLIC ACID]	6.791
O=C(O)c1cc(S(=O)(=O)O)ccc1O [SULFOSALICYLIC]	7.52
